This note sets out measurements from patent publication US20230158057A1, “COMPOSITIONS AND METHODS FOR THE TREATMENT OF PAIN” (Duke University, priority 2020, published 2023).

Series [1] deals with mice with CIPN or BCP. Kind of series: Conditioned place preference (CPP) assay in chronic pain (CIPN and BCP) models. Type of series: in vivo, mouse. Particulars: for conditioned place preference (ongoing pain): mice with CIPN or BCP, i.t.; for conditioned place preference, single pairing: mice with neuropathic pain (CIPN), i.t. 35 nmol. On the procedure:
All mice underwent 3 d of preconditioning habituation in a temperature- and humidity-controlled room under low-light conditions between 08:00-16:00 in a two compartment CPP chamber (Med Associates Inc.). The two compartments differed by both visual and tactile cues. On the 4th day, animal behavior was video-recorded using a webcam connected to a laptop computer, and animal movement was automatically tracked for 15 minutes using the ANY-Maze software (Stoelting). […] On the conditioning day(s) (day 5 for single trial; day 5-7 for repeated trials), two pairing sessions were performed, with vehicle pairing in the AM session and drug treatment (e.g., vehicle or drug) in the PM session, separated by 4 h. In the AM session, mice always received vehicle (10 μl saline, delivered via i.t. injection under isoflurane anesthesia) and were immediately placed in their preferred CPP chamber for 2 h. […] 24 h after the completion of the pairing experiments, mice were placed in the CPP test box with access to both chambers and behavior was recorded for 15 minutes and analyzed using the ANY-Maze software for chamber preference. CPP score was calculated as the inverse of the time spent in the preferred chamber according to: [post-preference (sec)—pre-preference (sec)]. Vehicle served as a negative control for these experiments, while morphine (three trials/naïve mice) or clonidine (single trial/ongoing pain) served as positive controls.

In series [2] the test system is female C57BL/6 mice with intrafemoral E0771 breast carcinoma. In words: E0771 breast cancer-induced bone cancer pain model. The settings on record: for bone destruction scored from X-ray images: E0771-bearing femora; for body weight / mechanical allodynia, cold allodynia and spontaneous pain: E0771 model. It counts as in vivo, mouse. On the procedure:
Bone cancer pain model. The murine cell lines LLC1, LL/2-Luc2 or E0771 were lightly digested using 0.05% trypsin, followed by centrifugation to remove poorly digested cell clusters. Cells were then resuspended in PBS at a concentration of 1×10^8 cells/ml. The inoculation was performed as previously described (Wang, K. et al. “PD-1 blockade inhibits osteoclast formation and murine bone cancer pain.” The Journal of clinical investigation, (2020); Wang, Z. et al. “Anti-PD-1 treatment impairs opioid antinociception in rodents and nonhuman primates.” Sci Transl Med 12 (2020)). Briefly, mice were anesthetized with 4% isoflurane and the left leg was shaved and the skin disinfected with 10% povidone-iodine and 75% ethanol. A superficial incision (0.5-1 cm) was made near the knee joint, exposing the patellar ligament. A new 25-gauge needle was inserted at the site of the intercondylar notch of the left femur into the femoral cavity, which was then replaced with a 10 μL microinjection syringe containing a 2 μL suspension of tumor cells (2×10^5) followed by 2 μL absorbable gelatin sponge solution to seal the injection site. The syringe contents were slowly injected into the femoral cavity over a 2-minute interval. To prevent further leakage of tumor cells outside of the bone cavity, the outer injection site was sealed with silicone adhesive (Kwik-Sil, World Precision Instruments, US). Animals with surgery related movement dysfunction or with outside bone tumor injection were excluded from the study.
Behavior tests. All the behavioral tests were conducted in a blinded manner and performed during between the hours of 9:00-16:00. Animals were habituated in a light and humidity controlled testing environment for at least 2 days prior to baseline testing. For Von Frey testing, mice were confined to individual 5×5 cm boxes placed on an elevated wire grid. A blinded experimenter stimulated their hindpaws using a series of von Frey filaments with logarithmically increasing stiffness (0.02-2.56 g, Stoelting). Each filament was applied perpendicularly to the central plantar surface. The 50% paw withdrawal threshold was determined using Dixon's up-down method. In addition, we also measured paw withdrawal frequency to repeated stimulation (10 times, with ˜1-2 minutes between each stimulation) using a subthreshold 0.16 g von Frey filament, which is a more sensitive method to detect mechanical allodynia. To measure cold allodynia, mice were similarly isolated to individual boxes on an elevated mesh floor, and a drop (˜20-30 μl) of acetone was applied to the plantar hindpaw. […] To measure locomotor function, we performed open field testing in which mice were placed in the center of a 45×45 cm chamber and locomotor activity was recorded by an overhead webcam connected to a laptop computer, and animals' movements were automatically tracked for 30 minutes using ANY-Maze. The total distance traveled and mean speed during the 30-minute period were analyzed.
In vivo X-ray radiography. Osteolytic bone destruction was continuously evaluated by radiography using the MultiFocus by Faxitron system (Faxitron Bioptics LLC, Tucson, Ariz.). Radiographs of tumor-bearing femora were rated for bone destruction on a 0-5 score scale based on previous study: 0 for normal bone at baseline without tumor inoculation; 1 for one to three radiolucent lesions indicative of bone destruction compared to baseline; 2 for increased number of lesions (three to six lesions) and loss of medullary bone; 3 for loss of medullary bone and erosion of cortical bone; 4 for full-thickness unicortical bone loss; 5 for full-thickness bicortical bone loss and displaced skeletal fracture. All radiographic image quantifications were completed by an experimenter who was blinded to the experimental conditions.
STING agonist treatment protects against breast cancer induced bone pain and bone destruction. […]

Series [3] has as its system IFN-α. Kind of series: IFN-α ELISA in serum and bone marrow lysate after i.p. STING agonist, LLC model. It counts as in vivo, mouse. Particulars: for increase of serum levels of IFN-α: 4 h after a single i.p. injection 20 mg/kg on d3, vs vehicle; for IFN-α in bone marrow (BM) lysate: 4 h after i.p., d3. How it is done:
(§1) ELISA. Mouse high-sensitivity IFN-α ELISA kit (42115-1) and IFN-β ELISA kit (42410-1) were purchased from PBL Assay Science. Mouse CTX-I ELISA kit (AC-06F1) and mouse PINP ELISA kit (AC-33F1) were purchased from Immunodiagnostic Systems. ELISA was performed using culture medium, serum, and bone marrow lysates. Serum was obtained from whole blood that was collected from a submandibular vein via facial vein puncture, coagulated for 30 minutes at room temperature, followed by centrifugation (2,000 ×g for 10 min, 4° C.) and collection of the supernatant (serum). Bone marrow was homogenized in a lysis buffer containing protease inhibitors at 4° C. for 30 minutes. ELISA was conducted in accordance with the manufacturer's instructions. A standard curve was performed for each experiment.

Series [4] has as its system IFN-β. In words: IFN-β ELISA on BMDM culture medium. Type of series: cell-based, mouse. The settings on record: 24 h after incubation; IFN-β induction much greater. How it is done: as §1
In vitro induction of osteoclastogenesis and TRAP staining. For in vitro drug treatment, the RAW 264.7 cells were incubated with 35 ng/ml RANKL for six days. Isolated bone marrow cells were cultured overnight in α-MEM media containing 10% fetal bovine serum and 1% antibiotic-antimycotic solution. The suspended cells were collected and incubated with 20 ng/ml MCSF for 3 days to obtain bone marrow-derived macrophage (BMDM). The attached cells were further activated by 35 ng/ml RANKL and 20 ng/ml MCSF. Drug treatment was performed in tandem with RANKL. Culture medium and co-cultured reagents were changed every 3 days. […]
On the technique in general: In an ELISA, binding on a coated surface is turned into a signal by an enzyme label.

Structures are written as SMILES.

For `Cc1ccc2c(=O)c3cccc(CC(=O)O)c3oc2c1C` [DMXAA, 2-(5,6-dimethyl-9-oxo-9H-xanthen-4-yl)acetic acid], in series [1], the “conditioned place preference (ongoing pain)” value is “induced CPP in both models” and the “conditioned place preference, single pairing” value is “induced comparable CPP as clonidine”. Moreover, in series [2], the “bone destruction scored from X-ray images” value is listed as “could also attenuate bone destruction”; the body weight result was “had no effect on body weight”; the “mechanical allodynia, cold allodynia and spontaneous pain” value was “could markedly reduce mechanical allodynia, cold allodynia and spontaneous pain”. In addition, in series [3], the “increase of serum levels of IFN-α” value is “approximately 1000 fold” and the “IFN-α in bone marrow (BM) lysate” value was “sharply increased”. In addition, the “IFN-β levels in the culture medium” value in series [4] was “drastic increase in IFN-α and IFN-β levels”.

As to `Nc1ncnc2c1ncn2[C@@H]1O[C@@H]2COP(=O)([S-])O[C@@H]3[C@H](O)[C@@H](COP([O-])(=S)O[C@H]2[C@H]1O)O[C@H]3n1cnc2c(N)ncnc21.[Na+].[Na+]` (stereo partly drawn) [ADU-S100, (2′-5′)-[P(R)]-5′-O-[(R)-hydroxymercaptophosphinyl]-P-thioadenylyl-adenosine cyclic dinucleotide], in series [1], the “conditioned place preference (ongoing pain)” value was “induced CPP in both models” and the “conditioned place preference, single pairing” value is “induced comparable CPP as clonidine”. Further, in series [2], the “bone destruction scored from X-ray images” value is “could also attenuate bone destruction”; the body weight entry is “had no effect on body weight”; the “mechanical allodynia, cold allodynia and spontaneous pain” value is “could markedly reduce mechanical allodynia, cold allodynia and spontaneous pain”. Moreover, in series [3], the “increase of serum levels of IFN-α” value is “approximately 1000 fold” and the “IFN-α in bone marrow (BM) lysate” value is listed as “sharply increased”. Moreover, the “IFN-β levels in the culture medium” value in series [4] was “drastic increase in IFN-α and IFN-β levels”.
